# Measured values: patent publication US12390437B2, “Itaconic acid derivatives and uses thereof intreating an inflammatory disease or a disease associated with an undesirable immune response” (Sitryx Therapeutics Limited, priority 2019, dated 2025)
# System: hepatocytes
# Test: Hepatocyte stability assay (human)
# Type: in vitro ADME
# Settings: 10 μM compound, 0.5×10^6 cells/mL, 60 minutes
# Method in brief: (§1)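 Cryopreserved hepatocytes (viability >70%), 0.5×10^6 cells/mL in Leibovitz buffer, incubated at 37 °C with 10 μM compound (0.1% DMSO), duplicates; buffer-only incubations as negative control. Samples at 0-60 min quenched in acetonitrile, parent measured by LC-MS/MS; half-life and Clint (μL min^−1 10^−6 cells) from ln % remaining versus time slope.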
row,CIint (μL min^−1 10^−6 cells),Structure (SMILES)
1,44 μL min^−1 10^−6 cells,"C=C(CC(=O)OCCCOc1ccccc1)C(=O)OCCC(=O)O [Example 86, 3-((2-methylene-4-oxo-4-(3-phenoxypropoxy)butanoyl)oxy)propanoic acid]"
2,11 μL min^−1 10^−6 cells,"C=C(CC(=O)OC1CCCCC1)C(=O)OCCC(=O)O [Example 87, 3-((4-(cyclohexyloxy)-2-methylene-4-oxobutanoyl)oxy)propanoic acid]"

# System: not listed separately
# Test: Hepatocyte stability assay (human)
# Type: in vitro ADME
# Settings: cryopreserved hepatocytes, 10 μM compound, 0.5×10^6 cells/mL, 60 minutes, read-out: T½
# Method in brief: as §1
row,half-life at 10 μM,Structure (SMILES)
1,31 min,"C=C(CC(=O)OCCCOc1ccccc1)C(=O)OCCC(=O)O [Example 86, 3-((2-methylene-4-oxo-4-(3-phenoxypropoxy)butanoyl)oxy)propanoic acid]"
2,136 min,"C=C(CC(=O)OC1CCCCC1)C(=O)OCCC(=O)O [Example 87, 3-((4-(cyclohexyloxy)-2-methylene-4-oxobutanoyl)oxy)propanoic acid]"

# System: IL-6 cytokine output from THP-1s
# Test: THP-1 AlphaLISA IL-6 cytokine assay
# Type: cell-based, human
# Settings: Homo sapiens; PMA-differentiated THP-1 cells, LPS 24 hr then Nigericin 1 hour
# Method in brief: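 Cells are differentiated with PMA over 72 h, switched to 1% FBS medium and treated with compound for 30 min before LPS stimulation for 24 h. Nigericin is added for a final hour, and secreted cytokine is measured by AlphaLISA, with IC50 fitted from percent inhibition.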
row,IC50,Structure (SMILES)
1,15.7 µM,"C=C(CC(=O)OCCCOc1ccccc1)C(=O)OCCC(=O)O [Example 86, 3-((2-methylene-4-oxo-4-(3-phenoxypropoxy)butanoyl)oxy)propanoic acid]"
2,100 µM,"C=C(CC(=O)OC1CCCCC1)C(=O)OCCC(=O)O [Example 87, 3-((4-(cyclohexyloxy)-2-methylene-4-oxobutanoyl)oxy)propanoic acid]"

# System: not listed separately
# Test: Mouse pharmacokinetic study, oral administration
# Type: in vivo
# Settings: male, C57BL/6, mouse, plasma, po, 100 mg/kg, plasma, male C57BL/6 mice, oral gavage 100 mg/kg, 0.25 h; read-out: Parent compound concentrations following oral administration, Time 0.25 h
# Method in brief: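 Young adult male C57BL/6 mice get a single 10 mg/kg IV or 100 mg/kg oral dose. Semi-serial plasma sampling, three mice per point, and LC-MS/MS quantitation follow.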
row,concentration at 0.25 h,Structure (SMILES)
1,41 ng/mL,"C=C(CC(=O)OCCCOc1ccccc1)C(=O)OCCC(=O)O [Example 86, 3-((2-methylene-4-oxo-4-(3-phenoxypropoxy)butanoyl)oxy)propanoic acid]"
2,35300 ng/mL,"C=C(CC(=O)OC1CCCCC1)C(=O)OCCC(=O)O [Example 87, 3-((4-(cyclohexyloxy)-2-methylene-4-oxobutanoyl)oxy)propanoic acid]"

# Same assay, conditions: male, C57BL/6, mouse, plasma, po, 100 mg/kg, plasma, male C57BL/6 mice, oral gavage 100 mg/kg, 0.5 h; read-out: Parent compound concentrations following oral administration, Time 0.5 h
row,concentration at 0.5 h,Structure (SMILES)
1,943 ng/mL,"C=C(CC(=O)OCCCOc1ccccc1)C(=O)OCCC(=O)O [Example 86, 3-((2-methylene-4-oxo-4-(3-phenoxypropoxy)butanoyl)oxy)propanoic acid]"
2,15900 ng/mL,"C=C(CC(=O)OC1CCCCC1)C(=O)OCCC(=O)O [Example 87, 3-((4-(cyclohexyloxy)-2-methylene-4-oxobutanoyl)oxy)propanoic acid]"

# Same assay, conditions: male, C57BL/6, mouse, plasma, po, 100 mg/kg, plasma, male C57BL/6 mice, oral gavage 100 mg/kg, 1 h; read-out: Parent compound concentrations following oral administration, Time 1 h
row,concentration at 1 h,Structure (SMILES)
1,686 ng/mL,"C=C(CC(=O)OCCCOc1ccccc1)C(=O)OCCC(=O)O [Example 86, 3-((2-methylene-4-oxo-4-(3-phenoxypropoxy)butanoyl)oxy)propanoic acid]"
2,8520 ng/mL,"C=C(CC(=O)OC1CCCCC1)C(=O)OCCC(=O)O [Example 87, 3-((4-(cyclohexyloxy)-2-methylene-4-oxobutanoyl)oxy)propanoic acid]"

# Same assay, conditions: male, C57BL/6, mouse, plasma, po, 100 mg/kg, plasma, male C57BL/6 mice, oral gavage 100 mg/kg, 2 h; read-out: Parent compound concentrations following oral administration, Time 2 h
row,concentration at 2 h,Structure (SMILES)
1,149 ng/mL,"C=C(CC(=O)OCCCOc1ccccc1)C(=O)OCCC(=O)O [Example 86, 3-((2-methylene-4-oxo-4-(3-phenoxypropoxy)butanoyl)oxy)propanoic acid]"
2,1460 ng/mL,"C=C(CC(=O)OC1CCCCC1)C(=O)OCCC(=O)O [Example 87, 3-((4-(cyclohexyloxy)-2-methylene-4-oxobutanoyl)oxy)propanoic acid]"

# Same assay, conditions: male, C57BL/6, mouse, plasma, po, 100 mg/kg, plasma, male C57BL/6 mice, oral gavage 100 mg/kg, 4 h; read-out: Parent compound concentrations following oral administration, Time 4 h
row,concentration at 4 h,Structure (SMILES)
1,19 ng/mL,"C=C(CC(=O)OCCCOc1ccccc1)C(=O)OCCC(=O)O [Example 86, 3-((2-methylene-4-oxo-4-(3-phenoxypropoxy)butanoyl)oxy)propanoic acid]"
2,198 ng/mL,"C=C(CC(=O)OC1CCCCC1)C(=O)OCCC(=O)O [Example 87, 3-((4-(cyclohexyloxy)-2-methylene-4-oxobutanoyl)oxy)propanoic acid]"

# Same assay, conditions: male, C57BL/6, mouse, plasma, po, 100 mg/kg, plasma, male C57BL/6 mice, oral gavage 100 mg/kg, 8 h; read-out: Parent compound concentrations following oral administration, Time 8 h
row,concentration at 8 h,Structure (SMILES)
1,< 3 ng/mL,"C=C(CC(=O)OCCCOc1ccccc1)C(=O)OCCC(=O)O [Example 86, 3-((2-methylene-4-oxo-4-(3-phenoxypropoxy)butanoyl)oxy)propanoic acid]"
2,31 ng/mL,"C=C(CC(=O)OC1CCCCC1)C(=O)OCCC(=O)O [Example 87, 3-((4-(cyclohexyloxy)-2-methylene-4-oxobutanoyl)oxy)propanoic acid]"

# Same assay, conditions: male, C57BL/6, mouse, plasma, po, 100 mg/kg, plasma, male C57BL/6 mice, oral gavage 100 mg/kg, 24 h; read-out: Parent compound concentrations following oral administration, Time 24 h
row,concentration at 24 h,Structure (SMILES)
1,< 3 ng/mL,"C=C(CC(=O)OCCCOc1ccccc1)C(=O)OCCC(=O)O [Example 86, 3-((2-methylene-4-oxo-4-(3-phenoxypropoxy)butanoyl)oxy)propanoic acid]"
2,< 14 ng/mL,"C=C(CC(=O)OC1CCCCC1)C(=O)OCCC(=O)O [Example 87, 3-((4-(cyclohexyloxy)-2-methylene-4-oxobutanoyl)oxy)propanoic acid]"
